Reference: patent US6630124B1, “Combination therapy with VIP antagonist” (Ramot-University Authority for Applied Research and …, priority 1998, dated 2003)
Blank lines part the entries; values can stand above or below the molecule they belong to. Where no end group is shown, it is not given here. [ ]: non-standard residue; d: D form. The star is where a group is joined. Stearoyl = CCCCCCCCCCCCCCCCCC(=O)*; Nle = CCCC[C@H](N)C(=O)O

Key:
[1] = system: cell lines derived from colon cancer and prostate cancer; test: MTS colorimetric proliferation assay, VIP antagonist with chemotherapeutic agents (Example I); type: cell-based; details: combination with stearyl-Nle17-neurotensis 6-11 VIP 7-28
Method: Assays were performed with cell lines derived from colon cancer and prostate cancer. Proliferation was assessed using the MTS colorimetric assay of mitochondrial function for living cells. The VIP antagonist (stearyl-Nle17-neurotensis 6-11 VIP 7-28) was used.

[2] = system: NCI-H727 non-small cell lung cancer (carcinoid); test: MTS cell proliferation assay, SNH and chemotherapy; type: cell-based; details: for nature of the combined effect with SNH: combination with SNH; for reduction of the IC50 of the chemotherapeutic agent by SNH: 5 μM SNH, NCI-H727
Method: NCI-H727 and LNCaP were grown in RPMI 1640 medium supplemented with 10% heat inactivated FCS, L-glutamine and antibiotics. HT-29 and CT-26 were grown in DMEM medium supplemented with 10% heat-inactivated FCS (fetal calf serum), L-glutamine and antibiotics. The cells were cultured in 5% CO2/95% air at […] and used during their exponential growth phase. Routinely, the cells which are adherent, were split when a subconfluent monolayer was formed. In different experiments, various concentration of FCS were used. For growth inhibition experiments, subconfluent adherent cells were washed with PBS and treated with trypsin/versene. The cells were pelleted and resuspended in medium to a final concentration of 75,000 cells/mL for NCI-H727. 50,000 cells/mL for LNCaP and HT-29 and 25000 cells/mL for CT-26. These different concentrations were used in order to avoid confluence in the wells at the end of the experiment and correspond to the different doubling times of the cell lines. On day 0, cells suspensions […] were dispensed using a multi-channel pipet into the individual wells of a 96-well tissue culture plate (Nuncion, Nunc Brand Products). […] Cells were incubated for 24 hours in a humidified atmosphere of 95% air/5% CO2 at 37° C. before treatment. On day 1, the cells were treated with different drugs and schedules and maintained under the same conditions. On day 4, viable cell number was determined by a modified MTT assay i.e., MTS non-radioactive cell proliferation assay (Promega). […] Results were finally expressed as percentage of the control, which was obtained from the samples with no drug treatment. Dose-response curves were plotted using a Sigma-Plot software and statistically analyzed using Student test. To determine the effect of the lipophilic VIP antagonist SNH on cell proliferation, cells plated in 96-well microplates for 24 hours as described, were treated with various concentrations of SNH. The peptide was diluted in PBS and […] of the peptide solution was added to each well for a final concentration of the peptide between 10^−510^−9 M. The solvent was added to the control wells. […] A dose-response curve was obtained at concentrations ranging from 2 μM-10 μM (see, FIG. 2). […] The effects of an 8 hours treatment were slightly less, showing that most of the effect is in the initial hours of exposure and much more dose than time dependent. […] For the experiments with the combinations of VIP antagonists and chemotherapeutic agents, on day 0, the cells were plated for 24 hours in medium supplemented with 5% FCS. On day 1, the peptide was added to the wells followed 1 hour later by the chemotherapeutic agents. […] The chemotherapeutic drugs were tested over 7 concentrations, covering as much as possible of the dose response curve of each individual drug. 24 hours later, the medium was exchanged and the cells incubated under the same conditions for another 48 hours. On day 4 the number of viable cells was determined by MTS assay.

MCF-7 cells = test: MTT colorimetric assay, breast cancer cells (Example 6); type: cell-based; details: for Absorbance at 570 nM: MCF-7, MTT, 5 days
Method: The ability of VIP receptor antagonists to alter the growth of breast cancer cells was investigated in vitro using the MTT colorimetric. The semiautomated MTT assay measures reduction of a tetrazolium compound by tumor cells to formazan. The optical density at 570 nm was determined for 8 wells at each inhibitor concentration. Seeding densities were 5×10^4 cells/well and cells were grown in 96 well plates for 5 days.

MDA-MB231 xenografts = test: MDA-MB231 breast cancer xenografts in nude mice; type: in vivo, Balb/c nude mice; details: after 4 weeks; VIPhyb 10 μg/day s.c., Taxol 1.5 mg i.p. once; PBS control 1121 mm^3
Method: To test the proliferative aspects of VIPhybrid analogs in vivo, nude mice bearing breast cancer xenografts were utilized. Female athymic Balb/c nude mice, 4-5 weeks old, were housed in a pathogen-free temperature controlled isolation room and the diet consisted of autoclaved rodent chow and autoclaved water given ad libitum. MDA-MB231 cells (1×10^7) were injected into the right flank of each mouse subcutaneously. […] PBS (100 μl) or VIPhyb analogs (10 μg/day) were injected subcutaneously adjacent to the tumor. Taxol was injected once (1.5 mg i.p.) after 2 weeks. The tumor volume (height×width×depth) was determined twice weekly by calipers and recorded.

[3] = system: VIP receptor (glioblastoma cells); test: cAMP in glioblastoma cells, basal and VIP-stimulated; type: cell-based; details: 10 nM VIP
Source text: The effects of VIP receptor antagonists on glioblastoma cell lines were investigated.

[4] = molecular target: T1, VIP receptor on U-87 cells (UniProt P32241 31-457, limits assumed); test: competition with 125I-VIP for binding to U-87 cells
T1 construct: whole, on cells; also called VIP1 receptor; VPAC1 receptor
T1 sequence (looked up): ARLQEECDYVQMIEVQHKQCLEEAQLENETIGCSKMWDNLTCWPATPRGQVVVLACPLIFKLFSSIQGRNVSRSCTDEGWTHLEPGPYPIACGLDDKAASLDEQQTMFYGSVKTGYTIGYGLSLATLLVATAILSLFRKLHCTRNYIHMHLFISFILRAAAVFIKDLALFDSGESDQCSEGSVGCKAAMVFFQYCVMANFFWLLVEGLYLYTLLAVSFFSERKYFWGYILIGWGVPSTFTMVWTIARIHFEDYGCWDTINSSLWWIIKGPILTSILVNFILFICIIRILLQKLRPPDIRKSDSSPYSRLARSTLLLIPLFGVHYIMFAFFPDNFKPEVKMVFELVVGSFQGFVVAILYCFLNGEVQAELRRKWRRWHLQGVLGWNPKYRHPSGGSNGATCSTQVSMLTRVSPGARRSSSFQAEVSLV

Molecule: COc1cccc2c1C(=O)c1c(O)c3c(c(O)c1C2=O)C[C@@](O)(C(=O)CO)C[C@@H]3O[C@H]1C[C@H](N)[C@H](O)[C@H](C)O1 [doxorubicine]
- effect of the combination with the VIP antagonist [1]: synergistic
- enhancement of the antiproliferative activity of the chemotherapeutic agent by the lipophilic VIP antagonist [1]: enhance the antiproliferative activity
- nature of the combined effect with SNH [2]: less pronounced

Molecule: N.N.[Cl][Pt][Cl] [cisplatin, cis-dichlorodiammineplatinum II]
- effect of the combination with the VIP antagonist [1]: synergistic
- reduction of the IC50 of the chemotherapeutic agent by SNH [2]: 4 fold
- nature of the combined effect with SNH [2]: synergistic

Molecule: KPRRPYTDNYTRLRKQMAVKKYLNSILN [VIPhyb, earlier hybrid VIP antagonist: neurotensin 6-11 joined to VIP 7-28]
- Absorbance at 570 nM (MCF-7 cells; 1 μM): .417 ± .064
- Absorbance at 570 nM (MCF-7 cells; 3 μM): .353 ± .048
- Absorbance at 570 nM (MCF-7 cells; 10 μM): .317 ± .030
- inhibition of MCF-7 proliferation (MCF-7 cells; 10 μM, MTT assay): significantly inhibited
- tumor volume (height×width×depth) (MDA-MB231 xenografts): 508 mm^3
- order of peptide potency, inhibition of VIP-stimulated cAMP [3]: (SN)VIPhybrid>VIP hybrid >PTC4495

Molecule: CCC1=C[C@@H]2CN(C1)Cc1c([nH]c3ccccc13)[C@@](C(=O)OC)(c1cc3c(cc1OC)N(C)[C@H]1[C@@](O)(C(=O)OC)[C@H](OC(C)=O)[C@]4(CC)C=CCN5CC[C@]31[C@@H]54)C2 [navelbine]
- effect of the combination with the VIP antagonist [1]: synergistic
- enhancement of the antiproliferative activity of the chemotherapeutic agent by the lipophilic VIP antagonist [1]: enhance the antiproliferative activity
- reduction of the IC50 of the chemotherapeutic agent by SNH [2]: at least 2 fold
- nature of the combined effect with SNH [2]: synergistic

Molecule: Cl.Nc1ccn([C@@H]2O[C@H](CO)[C@@H](O)C2(F)F)c(=O)n1 [gemcitabine, 2′-deoxy-2′,2′-difluorocytidine hydrochloride]
- enhancement of the antiproliferative activity of the chemotherapeutic agent by the lipophilic VIP antagonist [1]: enhance the antiproliferative activity
- nature of the combined effect with SNH [2]: only additive

- IC50 [4]: 70 nM
Molecule: KPRRPYTDNYTRLRKQMAVKKYLNSILN (ends and bridges not checked) [Neurotensis 6-11 VIP7-28 (VIPhybrid)]

- IC50 [4]: 500 nM
B1: (N-Stearyl-Norleucine17) VIPhybrid (peptide)
peptide: Stearoyl-KPRRPYTDNYTRLRKQ[Nle]AVKKYLNSILN-NH2
SMILES: CCCCCCCCCCCCCCCCCC(=O)N[C@@H](CCCCN)C(=O)N1CCC[C@H]1C(=O)N[C@@H](CCCNC(=N)N)C(=O)N[C@@H](CCCNC(=N)N)C(=O)N1CCC[C@H]1C(=O)N[C@@H](Cc1ccc(O)cc1)C(=O)N[C@H](C(=O)N[C@@H](CC(=O)O)C(=O)N[C@@H](CC(N)=O)C(=O)N[C@@H](Cc1ccc(O)cc1)C(=O)N[C@H](C(=O)N[C@@H](CCCNC(=N)N)C(=O)N[C@@H](CC(C)C)C(=O)N[C@@H](CCCNC(=N)N)C(=O)N[C@@H](CCCCN)C(=O)N[C@@H](CCC(N)=O)C(=O)N[C@@H](CCCC)C(=O)N[C@@H](C)C(=O)N[C@H](C(=O)N[C@@H](CCCCN)C(=O)N[C@@H](CCCCN)C(=O)N[C@@H](Cc1ccc(O)cc1)C(=O)N[C@@H](CC(C)C)C(=O)N[C@@H](CC(N)=O)C(=O)N[C@@H](CO)C(=O)N[C@H](C(=O)N[C@@H](CC(C)C)C(=O)N[C@@H](CC(N)=O)C(N)=O)[C@@H](C)CC)C(C)C)[C@@H](C)O)[C@@H](C)O
notes: Synthetic lipophilic VIP antagonist; also called (SN)VIPhybrid; SNVIPhybrid
